Source: patent publication US11098056B2, “UDP glycosyltransferase inhibitors and methods of use” (GENZYME CORPORATION, priority 2018, dated 2021)
pIC50: −log10 of the molar value.

Target: T1, UGT8 (Homo sapiens, UniProt Q16880)
T1 construct: host or cells: OE19 cells
T1 sequence (Q16880 21-541): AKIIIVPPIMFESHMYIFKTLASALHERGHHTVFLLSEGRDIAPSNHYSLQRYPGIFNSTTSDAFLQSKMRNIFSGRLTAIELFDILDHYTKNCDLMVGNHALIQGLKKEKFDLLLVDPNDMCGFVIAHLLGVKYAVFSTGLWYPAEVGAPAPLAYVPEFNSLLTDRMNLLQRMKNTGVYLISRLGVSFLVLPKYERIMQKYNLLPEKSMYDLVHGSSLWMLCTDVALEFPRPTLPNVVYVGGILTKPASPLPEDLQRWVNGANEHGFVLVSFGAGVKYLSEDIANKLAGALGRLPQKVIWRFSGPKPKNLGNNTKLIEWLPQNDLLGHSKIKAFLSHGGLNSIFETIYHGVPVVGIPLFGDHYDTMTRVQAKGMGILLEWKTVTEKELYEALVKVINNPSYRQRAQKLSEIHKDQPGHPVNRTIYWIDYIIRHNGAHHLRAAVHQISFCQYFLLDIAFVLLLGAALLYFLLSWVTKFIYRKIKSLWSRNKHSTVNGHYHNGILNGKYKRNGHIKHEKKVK
Assay: In vitro sulfatide (SFT) synthesis inhibition in OE19 cells, LC-MS/MS readout
Format: cell-based
Settings: 72 hr, sulfatide by LC-MS/MS, read-out: Potency range (IC50, In-vitro SFT)
Outline: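 OE19 cells, 2,500/well, exposed to compound dose-downs in triplicate for 72 hr at 37° C (screening at 10 μM final). Sulfatide quantified by LC-MS/MS (C8 UPLC, isocratic, negative-ion MRM) with C17 SFT internal standard; IC50 from concentration-response curves.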

**Q.** How did the pIC50 turn out when CNC(=O)c1csc2c(C(F)(F)F)cc(N3CCC(OC(=O)NC(C)C)C(F)(F)C3)nc12 (stereo not shown) [Example 91, 3,3-Difluoro-1-(3-(methylcarbamoyl)-7-(trifluoromethyl)thieno[3,2-b]pyridin-5-yl)piperidin-4-yl isopropylcarbamate] was run?
**A.** > 7.00

**Q.** How did the pIC50 turn out when CNC(=O)c1csc2c(C(F)(F)F)cc(C3CCN(C(=O)O[C@@H](C)C4CC4)CC3)nc12 [Example 566, (S)-1-Cyclopropylethyl 4-(3-(methylcarbamoyl)-7-(trifluoromethyl)thieno[3,2-b]pyridin-5-yl)piperidine-1-carboxylate] was run?
**A.** > 7.00

**Q.** How did the pIC50 turn out when CNC(=O)c1csc2c(C(F)(F)F)c(Cl)c(N3CCC(OC(=O)NC4CC4)CC3)nc12 [Example 640, [1-[6-Chloro-3-(methylcarbamoyl)-7-(trifluoromethyl)thieno[3,2-b]pyridin-5-yl]-4-piperidyl] N-cyclopropylcarbamate] was run?
**A.** > 7.00

**Q.** With CNC(=O)c1csc2c(C(F)(F)F)cc(O[C@@H]3CN(C(=O)OC(C)(C)C)C[C@@H]3F)nc12 (racemic) [Example 609, tert-Butyl (+/−)-cis-3-fluoro-4-((3-(methylcarbamoyl)-7-(trifluoromethyl)thieno[3,2-b]pyridin-5-yl)oxy)pyrrolidine-1-carboxylate] as the compound, how does the pIC50 read?
**A.** > 7.00

**Q.** With CNC(=O)c1csc2c(C(F)(F)F)cc(OC3CCN(C(=O)NCC4CC4)C3)nc12 (stereo not shown) [Example 590, 5-((1-((Cyclopropylmethyl)carbamoyl)pyrrolidin-3-yl)oxy)-N-methyl-7-(trifluoromethyl)thieno[3,2-b]pyridine-3-carboxamide] as the compound, how does the pIC50 read?
**A.** 6.00 to 7.00

**Q.** With CNC(=O)c1csc2c(C(F)(F)F)cc(N3CC4(CN(C(=O)OC5COC5)C4)C3)nc12 [Example 339, Oxetan-3-yl 6-(3-(methylcarbamoyl)-7-(trifluoromethyl)thieno[3,2-b]pyridin-5-yl)-2,6-diazaspiro[3.3]heptane-2-carboxylate] as the compound, how does the pIC50 read?
**A.** > 7.00

**Q.** CNC(=O)c1csc2c(C(F)(F)F)c(C)c(OC3CCN(C(=O)OC(C)(C)C)CC3)nc12 [Example 389, tert-Butyl 4-((6-methyl-3-(methylcarbamoyl)-7-(trifluoromethyl)thieno[3,2-b]pyridin-5-yl)oxy)piperidine-1-carboxylate] was tested. Which pIC50 did it give?
**A.** > 7.00

**Q.** With CNC(=O)c1csc2c(C(F)(F)F)cc(N3CCC(NC(=O)OCC(C)C)CC3)nc12 [Example 297, Isobutyl (1-(3-(methylcarbamoyl)-7-(trifluoromethyl)thieno[3,2-b]pyridin-5-yl)piperidin-4-yl) carbamate] as the compound, how does the pIC50 read?
**A.** > 7.00

**Q.** CNC(=O)c1csc2c(C(F)(F)F)cc(N3CCC(OC(=O)NC(C)CF)CC3)nc12 (racemic) [Example 671, [1-[3-(Methylcarbamoyl)-7-(trifluoromethyl)thieno[3,2-b]pyridin-5-yl]-4-piperidyl] N-(2-fluoro-1-methyl-ethyl)carbamate] was tested. Which pIC50 did it give?
**A.** > 7.00

**Q.** With CNC(=O)c1csc2c(C(F)(F)F)c(F)c(N3CCC(OC(=O)N[C@@H](C)C4CC4)CC3)nc12 [Example 639, [1-[6-Fluoro-3-(methylcarbamoyl)-7-(trifluoromethyl)thieno[3,2-b]pyridin-5-yl]-4-piperidyl] N-[(1S)-1-cyclopropylethyl]carbamate] as the compound, how does the pIC50 read?
**A.** > 7.00

**Q.** How did the pIC50 turn out when CNC(=O)c1csc2c(C(F)(F)F)c(F)c(N3CCC(OC(=O)NC4CC4)CC3)nc12 [Example 641, [1-[6-fluoro-3-(methylcarbamoyl)-7-(trifluoromethyl)thieno[3,2-b]pyridin-5-yl]-4-piperidyl] N-cyclopropylcarbamate] was run?
**A.** > 7.00

**Q.** How did the pIC50 turn out when CNC(=O)c1csc2c(C(F)(F)F)cc(N3CCC(OC(=O)NCC4CC4)CC3)nc12 [Example 474, 1-(3-(Methylcarbamoyl)-7-(trifluoromethyl)thieno[3,2-b]pyridin-5-yl)piperidin-4-yl (cyclopropylmethyl)carbamate] was run?
**A.** > 7.00

**Q.** How did the pIC50 turn out when CNC(=O)c1csc2c(C(F)(F)F)cc(N3CCC(NC(=O)OCCOC(F)(F)F)CC3)nc12 [Example 520, 2-(Trifluoromethoxy)ethyl (1-(3-(methylcarbamoyl)-7-(trifluoromethyl)thieno[3,2-b]pyridin-5-yl)piperidin-4-yl)carbamate] was run?
**A.** > 7.00
